Data on eight compounds can be found in PubChem BioAssay (NCI).

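Cultured in 96-well plates, cells were exposed to test compound for 48 hours across five concentrations. GI50 is the concentration that inhibits growth by half. Definition used: TGI = concentration required for complete inhibition of growth.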 Where only a bound is given, the exact number is not on record here.

Holding throughout (assay): NCI-60 cell line screen, 48 h
Experiment [1] concerns 786-0 renal.
Experiment [2] relates to ACHN renal.
Experiment [3] has as its system DU-145 prostate.
Experiment [4] relates to HCC-2998 colon.
Experiment [5] relates to HS 578T breast.
Experiment [6] deals with IGROV1 ovarian.
Experiment [7] has as its system RPMI-8226 leukemia.
In experiment [8] the test system is SF-268 CNS.
Experiment [9] concerns SK-OV-3 ovarian.
Experiment [10] deals with SR leukemia.

Consider `CN(C)c1ccc(/C=C2\N=C(c3ccccc3)N(c3cc(C(F)(F)F)ccc3Cl)C2=O)cc1`, for which the GI50 in experiment [1], in experiment [2], in [3], in experiment [4], in [5] and in experiment [6] was greater than 100 µM in each case. In addition, the GI50 in [7] is 35.7 µM; in experiment [8] it was greater than 100 µM; in experiment [9], greater than 100 µM; in [10] it was 0.0633 µM. The TGI in [1], in experiment [2], in experiment [3], in experiment [4], in experiment [5] and in [6] was greater than 100 µM each time. The TGI in experiment [7], in experiment [8] and in experiment [9] was greater than 100 µM in each case.

As for `CN(C)c1nc(=NCc2ccco2)ss1`, the TGI is 16.9 µM in experiment [1]; 45 µM in [2]; greater than 100 µM in experiment [3]; greater than 79.1 µM in experiment [4]; 78 µM in experiment [5]; greater than 100 µM in [6]. The TGI in experiment [7] is 36.3 µM; in experiment [8] it was 51.8 µM; in experiment [9], greater than 87 µM; in experiment [10], 15.3 µM.

For `O=C(Nc1ccc(-n2ccc3c(NC(=O)c4ccccc4)ncnc32)cc1)c1cccc(C(F)(F)F)c1`, the GI50 in experiment [1] was 2.91 µM; in [2], 1.09 µM; in experiment [3], 1.77 µM; in [4], 4.96 µM; in [5], 3.65 µM; in [6], 5.63 µM. Further, the GI50 in experiment [7] was 1.6 µM; in experiment [8] it was 1.16 µM; in experiment [9], 4.12 µM; in experiment [10], 0.0678 µM. The TGI in [1] was 21.9 µM; in [2], 23.6 µM; in experiment [3], 16.1 µM; in [4], 27 µM; in experiment [5], 33.3 µM; in experiment [6], 27.2 µM. In addition, the TGI in experiment [7] was 33.3 µM; in experiment [8] it was 24.5 µM; in [9] it was 29.4 µM; in experiment [10], greater than 32.5 µM.

On to `C=C1C(=O)O[C@H]2[C@H]1CC/C(COC(=O)NCc1ccc(OC)cc1)=C\CC[C@@]1(C)O[C@@H]21`, for which the GI50 was 0.7 µM in experiment [1]; 0.58 µM in experiment [2]; 0.726 µM in experiment [3]; 1.75 µM in experiment [4]; 3.1 µM in [5]; 0.783 µM in experiment [6]. The GI50 in experiment [7] is 0.683 µM; in [8], 1.72 µM; in experiment [9], 14.6 µM; in [10] it was 0.656 µM. The TGI in [1] is 1.67 µM; in experiment [2], 1.49 µM; in [3] it was 2.95 µM; in [4] it was 6.67 µM; in [5] it was 30.7 µM; in experiment [6] it was 2.79 µM. Also, the TGI in experiment [7] stood at 2.3 µM; in experiment [8], 13.4 µM; in [9], 29.3 µM; in experiment [10], 3.84 µM.

In the case of `O=[N+]([O-])c1nccn1CC(O)CN1CCCCC1` (centres undefined), the TGI in [1], in experiment [2], in experiment [3], in [4], in experiment [5] and in experiment [6] was greater than 100 µM throughout. In addition, the TGI in experiment [7], in [8], in experiment [9] and in experiment [10] was greater than 100 µM each time.

As for `CC[C@@]1(OC(=O)CN)C(=O)OCc2c1cc1n(c2=O)Cc2c-1nc1cc3c(cc1c2CCl)OCO3`, the GI50 in experiment [1] was 0.0102 µM; in [2], less than 0.01 µM; in [3] it was less than 0.01 µM; in experiment [4] it was 0.283 µM; in [5], 0.762 µM; in experiment [6], 0.234 µM. In addition, the GI50 is 0.0374 µM in [7], less than 0.01 µM in experiment [8], 0.375 µM in experiment [9] and less than 0.01 µM in experiment [10]. In addition, the TGI in experiment [1] is greater than 33.8 µM; in experiment [2], 0.244 µM; in experiment [3], greater than 33.6 µM; in [4], 3.76 µM; in experiment [5] it was 5.5 µM; in experiment [6], 15.1 µM. Also, the TGI in experiment [7] was 0.597 µM; in experiment [8], 0.516 µM; in [9], greater than 31.6 µM; in experiment [10] it was greater than 100 µM.

As for `CN1CCN(Cc2ccc(NC(=O)c3cncc(C#Cc4cnc(N)cc4C#N)c3)cc2C(F)(F)F)CC1`, the GI50 was 4.38 µM in experiment [1]; 1.57 µM in experiment [2]; 3.25 µM in experiment [3]; 3.9 µM in experiment [4]; 1.46 µM in [5]; 1.16 µM in experiment [6]. Further, the GI50 is 3.83 µM in experiment [7], 3.7 µM in experiment [8], 2.63 µM in experiment [9] and 4.21 µM in [10]. The TGI in [1] came to 16 µM; in experiment [2], 9.39 µM; in [3], 15.5 µM; in [4], 15.4 µM; in experiment [5] it was 7.46 µM; in [6], 5.62 µM. Further, the TGI in [7] is 21 µM; in experiment [8] it was 19.2 µM; in [9], 9.31 µM; in experiment [10] it was greater than 100 µM.

For `CCCn1cnc2c(SCC(=O)O)nc(N)nc21`, the TGI in [1], in experiment [2], in experiment [3], in experiment [4], in experiment [5] and in experiment [6] was greater than 100 µM each time. Besides, the TGI in [7], in [8], in experiment [9] and in experiment [10] was greater than 100 µM each time.
